Bounds are passed on as bounds.

The target of the first test is T1, full-length human BTK (Homo sapiens, UniProt Q06187).
T1 construct: 2.5× stocks of full-length human BTK (08-080); purchased CarnaBio USA, Inc., Natick, Mass; 08-080
T1 sequence (Q06187 whole entry): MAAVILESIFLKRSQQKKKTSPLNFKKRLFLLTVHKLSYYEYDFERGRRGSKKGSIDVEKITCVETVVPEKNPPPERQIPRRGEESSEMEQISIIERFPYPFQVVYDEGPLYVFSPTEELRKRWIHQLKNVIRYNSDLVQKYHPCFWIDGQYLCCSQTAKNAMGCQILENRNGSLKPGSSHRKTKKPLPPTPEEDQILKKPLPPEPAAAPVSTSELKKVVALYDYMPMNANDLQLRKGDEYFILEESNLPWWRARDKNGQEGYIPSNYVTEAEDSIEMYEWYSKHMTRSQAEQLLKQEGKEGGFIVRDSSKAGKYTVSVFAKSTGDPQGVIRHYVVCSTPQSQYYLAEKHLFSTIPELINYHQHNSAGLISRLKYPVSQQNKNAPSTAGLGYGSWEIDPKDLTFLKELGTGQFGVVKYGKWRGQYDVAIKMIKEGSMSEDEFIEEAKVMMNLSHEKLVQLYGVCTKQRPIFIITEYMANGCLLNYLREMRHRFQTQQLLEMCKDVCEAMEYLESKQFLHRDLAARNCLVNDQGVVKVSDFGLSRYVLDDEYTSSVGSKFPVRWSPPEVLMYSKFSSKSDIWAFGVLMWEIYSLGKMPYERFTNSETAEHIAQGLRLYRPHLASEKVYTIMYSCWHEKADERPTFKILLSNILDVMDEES
Briefly: Assay A: BTK IC50 Enzyme Assay (microfluidic off-chip mobility shift kinase assay). Format: biochemical.
Conditions: not given
The protocol:
Assay A: BTK IC50 Enzyme Assay
The following describes a microfluidic, off-chip mobility shift kinase assay used to measure inherent potency of compounds against BTK enzyme. Compounds described by embodiments of the present invention were assayed using this protocol and the data from the same is recorded in Table 2 within the column labeled: “Time Dependent BTK Enzyme Assay IC50”.
Stopped reactions were monitored at −2 PSI, −3000 V/−700 V in a LabChip 3000 plate reader from Caliper Life Sciences, a PerkinElmer Company (Hopkinton, Mass.), and the activity was measured by off-chip mobility shift assay measuring the charge/mass difference between substrate and product resulting from peptide phosphorilation. IC50 and efficacy were determined by plotting log [Inhibitor] vs. % Activity in GeneData Screener (Basel, Switzerland). […] I<1 uM and II>1 uM.
Consider `C=CC(=O)N1CCC(F)(CNc2ncc(C(N)=O)c(Oc3ccc(Oc4ccccc4)cc3)n2)CC1` [Compound 194, 2-(((1-acryloyl-4-fluoropiperidin-4-yl)methyl)amino)-4-(4-phenoxyphenoxy)pyrimidine-5-carboxamide], for which the 50% inhibitory concentration (IC50) – broadly, the concentration at which inhibition is half-maximal – lay in the range of 0.1 to 1 µM.

The same test, now with this note: full-length human BTK, kinKDR peptide substrate, incubated 90 min at 27 C; read-out: Assay A (Time Dependent BTK Enzyme Assay IC50).
As for `C=CC(=O)N1CC=C(c2ccc(C(N)=O)c(Oc3ccc(Oc4ccccc4)cc3)n2)C1` [Compound 88, 6-(1-acryloyl-2,5-dihydro-1H-pyrrol-3-yl)-2-(4-phenoxyphenoxy)nicotinamide], the IC50 lay within 0.1 to 1 µM.

For `C=CC(=O)N[C@H]1CCN(c2nc(Cl)ccc2C(N)=O)C1` [Compound 163, 2-((S)-3-Acryloylamino-pyrrolidin-1-yl)-6-chloro-nicotinamide], the IC50 is above 5 µM.

As to `C=CC(=O)N[C@H]1CCN(c2ccc(C(N)=O)c(Nc3ccc(F)cc3)n2)C1` [Compound 48, 6-((S)-3-Acryloylamino-pyrrolidin-1-yl)-2-(4-fluoro-phenylamino)-nicotinamide], the IC50 is below 0.1 µM.

For the molecule `C=CC(=O)N1C[C@@H]2C[C@H]1CN2c1cnc(C(N)=O)c(Oc2ccc(Oc3ccccc3)cc2)n1` [Compound 135, 5-((1S,4S)-5-Acryloyl-2,5-diaza-bicyclo[2.2.1]hept-2-yl)-3-(4-phenoxy-phenoxy)-pyrazine-2-carboxylic acid amide], the IC50 lay within 1 to 5 µM.

In the case of `C=CC(=O)N1CC=C(c2ccc(C(N)=O)c(Nc3ccc(C(=O)N4CCCCC4)cc3)n2)CC1` [Compound 28, 1′-Acryloyl-6-[4-(piperidine-1-carbonyl)-phenylamino]-1′,2′,3′,6′-tetrahydro-[2,4′]bipyridinyl-5-carboxylic acid amide], the IC50 is below 0.1 µM.

As for `N#CN1CCCC(Nc2cnc(Oc3ccc(Oc4ccccc4)cc3)c(C(N)=O)c2)C1` (centres unmarked) [Compound 247, 5-[(1-cyanopiperidin-3-yl)amino]-2-(4-phenoxyphenoxy)pyridine-3-carboxamide], the concentration for half-maximal inhibition (IC50) lay within 1 to 5 µM.

Consider `C=CC(=O)N[C@H]1CCN(c2ccc(C(N)=O)c(Oc3ccc(Oc4cccc(C(F)(F)F)c4)cc3)n2)C1` [Compound 82, (S)-6-(3-acrylamidopyrrolidin-1-yl)-2-(4-(3-(trifluoromethyl)phenoxy)phenoxy)nicotinamide], for which the concentration for half-maximal inhibition (IC50) was below 0.1 µM.

For `C=CC(=O)N[C@H]1CCN(c2ncc(C(N)=O)c(N)n2)C1` [Compound 142, 2-((S)-3-Acryloylamino-pyrrolidin-1-yl)-4-amino-pyrimidine-5-carboxylic acid amide], the 50% inhibitory concentration (IC50) was in the range of 0.1 to 1 µM.

On to `C=CC(=O)N1CCC(c2ccc(C(N)=O)c(Oc3ccc(NC(=O)c4ccccc4)cc3)n2)C1` (centres unmarked) [Compound 99, 6-(1-acryloylpyrrolidin-3-yl)-2-(4-benzamidophenoxy)nicotinamide], for which the IC50 was 1 to 5 µM.

On to `C=CC(=O)N[C@H]1CCN(c2ccc(C(N)=O)c(Nc3cncc(F)c3)n2)C1` [Compound 51, 6-((S)-3-Acryloylamino-pyrrolidin-1-yl)-2-(5-fluoro-pyridin-3-ylamino)-nicotinamide], for which the 50% inhibitory concentration (IC50) is below 0.1 µM.

Regarding `C=CC(=O)N1CCC[C@@H](c2cnc(Oc3ccc(Oc4ccccc4)cc3)c(C(N)=O)c2)C1` [Compound 125, (S)-5-(1-acryloylpiperidin-3-yl)-2-(4-phenoxyphenoxy)nicotinamide], the half-maximal inhibitory concentration (IC50) is below 0.1 µM.

As to `C=CC(=O)N1CCC(Nc2cnc(Oc3ccc(Oc4cccc(F)c4)cc3)c(C(N)=O)c2)C1` (centres unmarked) [Compound 253, 5-(1-Acryloyl-pyrrolidin-3-ylamino)-2-[4-(3-fluoro-phenoxy)-phenoxy]-nicotinamide], the IC50 was below 0.1 µM.

`C=CC(=O)N[C@H]1CCN(c2ccc(C(N)=O)c(Nc3ccc(N4CC(C)OC(C)C4)c(F)c3)n2)C1` (stereo partly drawn) [Compound 27, 6-((S)-3-Acryloylamino-pyrrolidin-1-yl)-2-[4-(2,6-dimethyl-morpholin-4-yl)-3-fluoro-phenylamino]-nicotinamide]: the IC50 was below 0.1 µM.

As for `C=CC(=O)N1CCC(c2cc(Oc3ccc(Oc4ccc(C)cc4)cc3)c(C(N)=O)cn2)C1` (centres unmarked) [Compound 110, 6-(1-acryloylpyrrolidin-3-yl)-4-(4-(p-tolyloxy)phenoxy)nicotinamide], the concentration for half-maximal inhibition (IC50) was below 0.1 µM.

Turning to `C=CC(=O)NC1CCN(c2cnc(Oc3ccc(Oc4ccccc4)cc3)c(C(N)=O)c2)C1` (centres unmarked) [Compound 196, 5-(3-Acryloylamino-pyrrolidin-1-yl)-2-(4-phenoxy-phenoxy)-nicotinamide], the IC50 lay within 0.1 to 1 µM.

Regarding `C=CC(=O)N1CCC(CNc2ncc(C(N)=O)c(Oc3ccc(Oc4ccccc4)cc3)n2)CC1` [Compound 209, 2-(((1-acryloylpiperidin-4-yl)methyl)amino)-4-(4-phenoxyphenoxy)pyrimidine-5-carboxamide], the half-maximal inhibitory concentration (IC50) fell in the range of 0.1 to 1 µM.

In the case of `C/C=C/C(=O)N1CCC(c2cnc(Oc3ccc(Oc4cccc(F)c4)cc3)c(C(N)=O)c2)C1` (centres unmarked) [Compound 167, 5-[1-((E)-But-2-enoyl)-pyrrolidin-3-yl]-2-[4-(3-fluoro-phenoxy)-phenoxy]-nicotinamide], the half-inhibitory concentration (IC50) was 1 to 5 µM.

Regarding `C=CC(=O)N1CC2CN(c3cnc(Oc4ccc(Oc5ccccc5)cc4)c(C(N)=O)c3)CC2C1` (centres unmarked) [Compound 216, 5-(5-Acryloyl-hexahydro-pyrrolo[3,4-c]pyrrol-2-yl)-2-(4-phenoxy-phenoxy)-nicotinamide], the IC50 fell in the range of 0.1 to 1 µM.

Regarding `C=CC(=O)N[C@H]1CCN(c2ncc(C(N)=O)c(Nc3ccc(C(=O)N4CCOCC4)cc3)n2)C1` [Compound 140, 2-((S)-3-Acryloylamino-pyrrolidin-1-yl)-4-[4-(morpholine-4-carbonyl)-phenylamino]-pyrimidine-5-carboxylic acid amide], the half-maximal inhibitory concentration (IC50) was below 0.1 µM.

On to `C=CC(=O)N1CCC(Nc2ncc(C(N)=O)c(Oc3ccc(Oc4ccccc4)cc3)n2)CC12CCC2` (centres unmarked) [Compound 175, 2-(5-Acryloyl-5-aza-spiro[3.5]non-8-ylamino)-4-(4-phenoxy-phenoxy)-pyrimidine-5-carboxylic acid amide], for which the half-maximal inhibitory concentration (IC50) lay within 0.1 to 1 µM.

For the molecule `C=CC(=O)N1CCN(c2ncc(C(N)=O)c(Oc3ccc(Oc4ccccc4)cc3)n2)C(C)(C)C1` [Compound 151], the IC50 lay in the range of 0.1 to 1 µM.

As to `C=CC(=O)N1CC[C@@H](N(C)c2ccc(C(N)=O)c(Oc3ccc(Oc4ccccc4)cc3)n2)C1` [Compound 187, 6-[((R)-1-Acryloyl-pyrrolidin-3-yl)-methyl-amino]-2-(4-phenoxy-phenoxy)-nicotinamide], the half-maximal inhibitory concentration (IC50) lay within 0.1 to 1 µM.

On to `N#CN1CCCC(Nc2ncc(C(N)=O)c(Oc3ccc(Oc4ccccc4)cc3)n2)C1` (centres unmarked) [Compound 239, 2-[(1-cyanopiperidin-3-yl)amino]-4-(4-phenoxyphenoxy)pyrimidine-5-carboxamide], for which the IC50 lay in the range of 1 to 5 µM.

Take `C=CC(=O)N1CC2CN(c3cnc(Oc4ccc(Oc5cccc(F)c5)cc4)c(C(N)=O)c3)CC2C1` (centres unmarked) [Compound 238, 5-(5-Acryloyl-hexahydro-pyrrolo[3,4-c]pyrrol-2-yl)-2-[4-(3-fluoro-phenoxy)-phenoxy]-nicotinamide]: the IC50 lay within 0.1 to 1 µM.

For the molecule `C=CC(=O)N1CCN(c2ccc(C(N)=O)c(Nc3cccnc3)n2)CC1` [Compound 43], the IC50 is below 0.1 µM.

On to `N#CN1CCC(c2cnc(Oc3ccc(Oc4ccccc4)cc3)c(C(N)=O)c2)CC1` [Compound 244, 5-(1-cyanopiperidin-4-yl)-2-(4-phenoxyphenoxy)pyridine-3-carboxamide], for which the IC50 was 1 to 5 µM.

As for `C=CC(=O)N[C@H]1CCN(c2ccc(C(N)=O)c(Nc3ccc(C(=O)N(C)C)cc3)n2)C1` [Compound 26, 6-((S)-3-Acryloylamino-pyrrolidin-1-yl)-2-(4-dimethylcarbamoyl-phenylamino)-nicotinamide], the 50% inhibitory concentration (IC50) is below 0.1 µM.

As to `C=CC(=O)N[C@H]1C[C@@H](Nc2ncc(C(N)=O)c(N)n2)C1` [Compound 143, 2-(3-Acryloylamino-cyclobutylamino)-4-amino-pyrimidine-5-carboxylic acid amide], the IC50 is 0.1 to 1 µM.

Turning to `NC(=O)c1ccc(C2CCN(C(=O)/C=C/CN3CCN(CCNC(=O)CCCC[C@@H]4SC[C@@H]5NC(=O)N[C@@H]54)CC3)CC2)nc1Oc1ccc(Oc2ccccc2)cc1` [Compound 86, 6-(1-((E)-4-(4-(2-(5-((3aS,4S,6aR)-2-oxohexahydro-1H-thieno[3,4-d]imidazol-4-yl)pentanamido)ethyl)piperazin-1-yl)but-2-enoyl)piperidin-4-yl)-2-(4-phenoxyphenoxy)nicotinamide], the half-maximal inhibitory concentration (IC50) is 0.1 to 1 µM.

`C=CC(=O)N[C@H]1CCN(c2ncc(C(N)=O)c(Oc3ccc(Oc4ccccc4)cc3)n2)C1` [Compound 192, (S)-2-(3-acrylamidopyrrolidin-1-yl)-4-(4-phenoxyphenoxy)pyrimidine-5-carboxamide]: the IC50 fell in the range of 0.1 to 1 µM.

On to `CN(C)C/C=C/C(=O)N[C@H]1CCN(c2ncc(C(N)=O)c(N)n2)C1` [Compound 145, 4-Amino-2-[(S)-3-((E)-4-dimethylamino-but-2-enoylamino)-pyrrolidin-1-yl]-pyrimidine-5-carboxylic acid amide], for which the IC50 was 1 to 5 µM.

`C=CC(=O)N1CC2CCC1CN2c1ncc(C(N)=O)c(Oc2ccc(Oc3ccccc3)cc2)n1` (centres unmarked) [Compound 225, 2-(5-acryloyl-2,5-diazabicyclo[2.2.2]octan-2-yl)-4-(4-phenoxyphenoxy)pyrimidine-5-carboxamide]: the 50% inhibitory concentration (IC50) is below 0.1 µM.

In the case of `N#CNC(=O)N1CCN(c2ccc(C(N)=O)c(Oc3ccc(Oc4ccccc4)cc3)n2)CC1` [Compound 237, 4-(5-carbamoyl-6-(4-phenoxyphenoxy)pyridin-2-yl)-N-cyanopiperazine-1-carboxamide], the IC50 lay in the range of 1 to 5 µM.

Regarding `C=CC(=O)N1CCC(c2ccc(C(N)=O)c(Nc3ccc(C)nc3)n2)CC1` [Compound 49], the IC50 was below 0.1 µM.

These data come from patent publication US10329270B2, “Heteroaryl compounds as BTK inhibitors and uses thereof” (Merck Patent GmbH, priority 2013, dated 2019).
